Reference: ChEMBL document CHEMBL1201862, “PubChem BioAssay data set” (2004)
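Dose response: 5 concentrations. Exposure: 48 h. Format: 96-well plates. Endpoint: linear interpolation; highest concentration if not reached. GI50 marks 50% less growth.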 Active and inactive are the calls of the source. No stated cut-off is given here; in the data, active = GI50 up to about 1.1 µM and inactive = higher.

Key:
Test in all cases: NCI tumour cell line growth inhibition, 48 h
UACC-257 = test system: UACC-257
OVCAR-4 = test system: OVCAR-4
M14 = test system: M14
RXF 393 = test system: RXF 393
MDA-MB-231 = test system: MDA-MB-231
U-251 = test system: U-251
Hs-578T = test system: Hs-578T
MOLT-4 = test system: MOLT-4
T47D = test system: T47D
DU-145 = test system: DU-145
SK-MEL-5 = test system: SK-MEL-5
KM12 = test system: KM12
HCT-116 = test system: HCT-116
HOP-62 = test system: HOP-62
BT-549 = test system: BT-549
SNB-19 = test system: SNB-19
HL-60 = test system: HL-60
NCI-H460 = test system: NCI-H460
Malme-3M = test system: Malme-3M
HT-29 = test system: HT-29
HOP-92 = test system: HOP-92
RPMI-8226 = test system: RPMI-8226
HCT-15 = test system: HCT-15
NCI/ADR-RES = test system: NCI/ADR-RES
SNB-75 = test system: SNB-75
OVCAR-5 = test system: OVCAR-5
IGROV-1 = test system: IGROV-1
NCI-H522 = test system: NCI-H522
SK-OV-3 = test system: SK-OV-3
SF-295 = test system: SF-295
SF-539 = test system: SF-539
TK-10 = test system: TK-10
A498 = test system: A498
ACHN = test system: ACHN
MDA-N = test system: MDA-N
786-0 = test system: 786-0
UO-31 = test system: UO-31
HCC 2998 = test system: HCC 2998
OVCAR-3 = test system: OVCAR-3
A549 = test system: A549
MCF7 = test system: MCF7
EKVX = test system: EKVX
SN12C = test system: SN12C
SW-620 = test system: SW-620
CAKI-1 = test system: CAKI-1
K562 = test system: K562
NCI-H23 = test system: NCI-H23
SF-268 = test system: SF-268
MDA-MB-435 = test system: MDA-MB-435
NCI-H226 = test system: NCI-H226
OVCAR-8 = test system: OVCAR-8
COLO 205 = test system: COLO 205
CCRF-CEM = test system: CCRF-CEM
PC-3 = test system: PC-3
UACC-62 = test system: UACC-62
SR = test system: SR
SK-MEL-28 = test system: SK-MEL-28
LOX IMVI = test system: LOX IMVI
SK-MEL-2 = test system: SK-MEL-2

CC(C)OC(=O)c1ccc(NCC2=CC(=O)C=CC2=O)cc1
GI50 (UACC-257): 14.1 µM (inactive) | GI50 (OVCAR-4): 12.8 µM (inactive) | GI50 (M14): 14.5 µM (inactive) | GI50 (RXF 393): 12.8 µM (inactive) | GI50 (MDA-MB-231): 10.2 µM (inactive) | GI50 (U-251): 16 µM (inactive) | GI50 (Hs-578T): 18.3 µM (inactive) | GI50 (MOLT-4): 2.39 µM (inactive) | GI50 (T47D): 2.25 µM (inactive) | GI50 (DU-145): 16.6 µM (inactive) | GI50 (SK-MEL-5): 17.4 µM (inactive) | GI50 (KM12): 16.6 µM (inactive) | GI50 (HCT-116): 14.4 µM (inactive) | GI50 (HOP-62): > 95.5 µM (inactive) | GI50 (BT-549): 12.9 µM (inactive) | GI50 (SNB-19): 29.4 µM (inactive) | GI50 (HL-60): 2.2 µM (inactive) | GI50 (NCI-H460): 36.3 µM (inactive) | GI50 (Malme-3M): 8.97 µM (inactive) | GI50 (HT-29): 16.4 µM (inactive) | GI50 (HOP-92): 2.48 µM (inactive) | GI50 (RPMI-8226): 2.54 µM (inactive) | GI50 (HCT-15): 12.7 µM | GI50 (NCI/ADR-RES): 13.5 µM (inactive) | GI50 (SNB-75): 18.5 µM (inactive) | GI50 (OVCAR-5): 19.4 µM (inactive) | GI50 (IGROV-1): 13.5 µM (inactive) | GI50 (NCI-H522): 1.69 µM (inactive) | GI50 (SK-OV-3): 42 µM (inactive) | GI50 (SF-295): 28.2 µM (inactive) | GI50 (SF-539): 7.45 µM (inactive) | GI50 (TK-10): 15.3 µM (inactive) | GI50 (A498): 27.2 µM (inactive) | GI50 (ACHN): 12 µM (inactive) | GI50 (MDA-N): 15.1 µM (inactive) | GI50 (786-0): 13 µM (inactive) | GI50 (UO-31): 9.91 µM (inactive) | GI50 (HCC 2998): 21.4 µM (inactive) | GI50 (OVCAR-3): 6.19 µM (inactive) | GI50 (A549): 44.3 µM (inactive) | GI50 (MCF7): 12.4 µM (inactive) | GI50 (EKVX): 17.3 µM (inactive) | GI50 (SN12C): 12.9 µM (inactive) | GI50 (SW-620): 11.7 µM (inactive) | GI50 (CAKI-1): 3.43 µM (inactive) | GI50 (K562): 2.35 µM (inactive) | GI50 (NCI-H23): 13.6 µM (inactive) | GI50 (SF-268): 12.3 µM (inactive) | GI50 (MDA-MB-435): 13.6 µM (inactive) | GI50 (NCI-H226): 30 µM (inactive) | GI50 (OVCAR-8): 15.3 µM (inactive) | GI50 (COLO 205): 3.8 µM (inactive) | GI50 (CCRF-CEM): 2.21 µM (inactive) | GI50 (PC-3): 13.1 µM (inactive) | GI50 (UACC-62): 15.3 µM (inactive) | GI50 (SR): 2.39 µM (inactive) | GI50 (SK-MEL-28): 18.3 µM (inactive) | GI50 (LOX IMVI): 12.8 µM (inactive) | GI50 (SK-MEL-2): 17 µM (inactive)
